In patent publication US11583525B2, “Geranylgeranyltransferase I inhibitor for treatment of a PTEN defective cancer” (H. LEE MOFFITT CANCER CENTER AND RESEARCH INSTITUTE, INC., priority 2017, dated 2023):

Legend:
Type in all cases: cell-based, human
FBXL2 and IP3R3 = test: FBXL2-IP3R3 co-immunoprecipitation after ATP stimulation; conditions: ATP for 30 min; particularly upon proteasome inhibition
Procedure: FIGS. 8A, 8B, 8C, 8D, 8E, 8F, 8G, 8H, 8I, and 8J show Mapping of the FBXL2-binding domain in IP3R3, and evidence that the N-terminal suppressor domain inhibits the IP3R3-FBXL2 interaction. […] Binding of IP3R3 to FBXL2 is indicated with the symbol (+). […] Whole-cell lysates (WCL) were immunoprecipitated (IP) with anti-Flag resin and proteins were immunoblotted as indicated. This experiment was performed twice. […] Sixteen hours after transfection, cells were incubated with MG132 for 3 h before stimulation with ATP for 30 min Whole-cell lysates were immunoprecipitated (IP) with an anti-HA resin and proteins were immunoblotted as indicated. This experiment was performed twice. […] Cells were subsequently treated with or without ATP for 30 min Whole-cell lysates were immunoprecipitated (IP) with an anti-Flag resin and proteins were immunoblotted as indicated. […] P values were calculated by one-way ANOVA and multiple-comparisons test. Error bars indicate s.e.m. […] It has been shown that removal of the N-terminal suppressor domain (amino acids 1-226) increases the binding of IP3 to the IP3 binding core domain (amino acids 227-579), and IP3 binding evokes conformational changes that open the suppressor domain29-32. These conformational changes may allow FBXL2 to access the degron of IP3R3 (that is, the amino acid region required for binding to FBXL2). […]

IP3R3 [1] = test: IP3R3 degradation in serum-starved and exponentially growing NHFs treated with ATP; conditions: NHFs cultured in presence or absence of serum
IP3R3 [2] = test: Serum-mediated degradation of IP3R3 in serum-starved, serum re-stimulated NHFs (immunoblotting); conditions: NHFs serum-starved 72 h, re-stimulated with serum; 10 μM MG132, 10 μM Eer1
Procedure: 24 h post-transfection, cells were treated with MG132 for 3 h before harvesting for immunoprecipitation and immunoblotting as indicated. WCL, whole-cell lysate from untransfected cells. […] After harvesting, cells were lysed, and cell membranes (CM) were isolated and immunoprecipitated with either a normal mouse IgG or an anti-Flag antibody. Subsequently, immunoprecipitates were analysed by immunoblotting as indicated. The results of these experiments (n=2) indicate that FBXL2 is incorporated into a complete SCF ligase that binds its substrate(s) at cellular membranes. […] After harvesting, cells were lysed and cytoplasmic (CYTO) and cell membrane (CM) fractions were isolated and analysed by immunoblotting as indicated. Actin and calnexin are used as markers for cytoplasmic and cell membrane fractions, respectively. This experiment was performed twice. […] 24 h post-transfection, where indicated, cells were treated with MG132 for 3 h before harvesting for immunoprecipitation and immunoblotting. Ned. CUL1, neddylated CUL1. […] The experiment was performed in the presence or absence of MG132 as indicated. Whole-cell lysates were immunoblotted as indicated. The asterisk indicates a non-specific band. This experiment was performed twice. […] P values were calculated by unpaired t-test. Error bars indicate s.e.m. […] Error bars indicate s.e.m. The values represent the ratios between FBXL2 and GAPDH mRNAs. […] Cells were subsequently stimulated with medium containing serum and harvested at the indicated times for immunoblotting. […] Error bars indicate s.e.m. […] Cells were subsequently stimulated with medium containing serum and harvested at the indicated time points for immunoblotting. […] Error bars indicate s.e.m. […] Exon 2 and exon 3 refer to the human FBXL2 gene in NC_000003.12 (GRCh38.p7 (Gene Bank ID: 3129728)). […]
FIGS. 6A, 6B, 6C, 6D, 6E, 6F, 6G, and 6H that the degradation of IP3R3 is dependent on FBXL2 localization to cell membranes and on the segregase activity of p97. […] Samples were analysed by immunoblotting with the indicated antibodies. […]

NHFs = test: H2O2-induced apoptosis in NHFs transfected with FBXL2 siRNA (automated nuclei count); conditions: pre-treated for 30 min with cyclosporin A (1 μM), H2O2 16 h
Procedure: FIGS. 1A, 1B, 1C, 1D, 1E, 1F, 1G, and 1H show FBXL2-mediated degradation of IP3R3 controls Ca2+ flux and sensitivity to apoptosis. […] Left, two representative traces. Right, quantification of three independent experiments. P values were calculated by one-way ANOVA and multiple-comparisons test. Error bars indicate s.e.m. 1b, 1c, and 1d, Apoptosis evaluated after treatment with H2O2 using automated nuclei count analysis of twenty randomly chosen fields following a 16 h treatment (1b), immunoblot detection of cleaved PARP and cleaved caspase-3 following a 3 h treatment (1c), and automated analysis of cells with released cytochrome c (Cyt c) from 80 randomly chosen fields following a 3 h treatment (1d). […] P values were calculated by one-way ANOVA and multiple-comparisons test. […] Left, representative traces show concentrations of cytosolic Ca2+ measured with aequorin. Right, quantification of three independent experiments. P values were calculated by one-way ANOVA and multiple-comparisons test. […] Apoptosis shown in 1h was evaluated as in 1b, except that H2O2 treatment was for 5 h. Analysis of cytochrome c release shown in 1i was evaluated as in 1d. P values were calculated by unpaired t-test. […]
Detection of cell death in cell systems. […] The mean fluorescence intensities and standard deviations of […] cytochrome c were evaluated in comparison to corresponding controls. […]

Nc1ncnc2c1ncn2[C@@H]1O[C@H](COP(=O)(O)OP(=O)(O)OP(=O)(O)O)[C@@H](O)[C@H]1O [ATP]
binding between FBXL2 and IP3R3 (FBXL2 and IP3R3): increased the binding between FBXL2 and IP3R3
degradation of IP3R3 (IP3R3 [1]): promoted the degradation of IP3R3 in cells cultured in the presence, but not in the absence, of serum

CC1(C)C(N(O)C(=O)Nc2ccc(Cl)cc2)N(c2ccc(Cl)cc2)C(=O)N1CC(=O)N/N=C/C=C/c1ccc([N+](=O)[O-])o1 (centres unmarked) [Eer1, Eeyarestatin 1]
IP3R3 levels / degradation after serum re-stimulation (IP3R3 [2]): blocked IP3R3 degradation

CC(=O)N[C@@H](CSC(=O)[C@]1([C@@H](O)C(C)C)NC(=O)[C@H](C)[C@@H]1O)C(=O)O [lactacystin]
IP3R3 levels / degradation after serum re-stimulation (IP3R3 [2]): much less

cyclosporin-A
sensitization to H2O2 by FBXL2 silencing (NHFs): abolished the sensitization to H2O2 by FBXL2 silencing
